Test results from ChEMBL document CHEMBL1909046, “DrugMatrix in vitro pharmacology data”.

Assays:
[1] = DRUGMATRIX: Purinergic P2X radioligand binding (ligand: [3H] alpha, beta-Methylene-ATP); type: cell membranes, Oryctolagus cuniculus, New Zealand albino, Urinary bladder, Membrane; conditions: Not Active = under 50% inhibition at 10 µM
[2] = target: T1, B2 bradykinin receptor (Homo sapiens, UniProt P30411); type: cell membranes, Membrane; conditions: chem-1; further: in other assays of this panel Not Active means under 50% inhibition at 10 µM
T1 sequence (P30411 whole entry): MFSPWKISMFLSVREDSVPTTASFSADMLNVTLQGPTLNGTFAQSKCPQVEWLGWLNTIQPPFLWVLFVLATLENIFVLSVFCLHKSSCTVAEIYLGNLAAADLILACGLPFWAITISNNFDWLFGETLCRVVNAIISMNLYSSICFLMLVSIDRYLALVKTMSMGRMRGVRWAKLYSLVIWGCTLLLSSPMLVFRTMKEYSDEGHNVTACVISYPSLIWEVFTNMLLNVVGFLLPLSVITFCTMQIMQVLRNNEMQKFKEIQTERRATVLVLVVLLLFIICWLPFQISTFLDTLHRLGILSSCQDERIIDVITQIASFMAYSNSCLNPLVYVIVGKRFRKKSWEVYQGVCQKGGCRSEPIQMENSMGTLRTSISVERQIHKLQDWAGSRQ

[3] = target: Cytochrome P450 2C19 (Homo sapiens, UniProt P33261); conditions: bti-tn-5b1-4; further: in other assays of this panel Not Active means under 50% inhibition at 10 µM
[4] = target: Aldo-keto reductase family 1 member B1 (Rattus norvegicus, UniProt P07943); type: tissue-based, Lens of camera-type eye;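 further: inhibition of aldose reductase enzyme activity, measured with DL-glyceraldehyde as the substrate; in other assays of this panel Not Active means under 50% inhibition at 10 µM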
[5] = DRUGMATRIX: Serotonin (5-Hydroxytryptamine) 5-HT3 radioligand binding (ligand: [3H] GR-65630); type: cell membranes, Membrane; conditions: hek293; Not Active = under 50% inhibition at 10 µM
[6] = DRUGMATRIX: Sigma2 radioligand binding (ligand: [3H] Ifenprodil); type: cell membranes, Rattus norvegicus, Wistar, Brain, Membrane; conditions: Not Active = under 50% inhibition at 10 µM
[7] = target: Vascular endothelial growth factor receptor 1 (Homo sapiens, UniProt P17948); assay: biochemical; type: cell-based, HUVEC; conditions: huvec; further: in other assays of this panel Not Active means under 50% inhibition at 10 µM
Sequence of Vascular endothelial growth factor receptor 1 (P17948 whole entry): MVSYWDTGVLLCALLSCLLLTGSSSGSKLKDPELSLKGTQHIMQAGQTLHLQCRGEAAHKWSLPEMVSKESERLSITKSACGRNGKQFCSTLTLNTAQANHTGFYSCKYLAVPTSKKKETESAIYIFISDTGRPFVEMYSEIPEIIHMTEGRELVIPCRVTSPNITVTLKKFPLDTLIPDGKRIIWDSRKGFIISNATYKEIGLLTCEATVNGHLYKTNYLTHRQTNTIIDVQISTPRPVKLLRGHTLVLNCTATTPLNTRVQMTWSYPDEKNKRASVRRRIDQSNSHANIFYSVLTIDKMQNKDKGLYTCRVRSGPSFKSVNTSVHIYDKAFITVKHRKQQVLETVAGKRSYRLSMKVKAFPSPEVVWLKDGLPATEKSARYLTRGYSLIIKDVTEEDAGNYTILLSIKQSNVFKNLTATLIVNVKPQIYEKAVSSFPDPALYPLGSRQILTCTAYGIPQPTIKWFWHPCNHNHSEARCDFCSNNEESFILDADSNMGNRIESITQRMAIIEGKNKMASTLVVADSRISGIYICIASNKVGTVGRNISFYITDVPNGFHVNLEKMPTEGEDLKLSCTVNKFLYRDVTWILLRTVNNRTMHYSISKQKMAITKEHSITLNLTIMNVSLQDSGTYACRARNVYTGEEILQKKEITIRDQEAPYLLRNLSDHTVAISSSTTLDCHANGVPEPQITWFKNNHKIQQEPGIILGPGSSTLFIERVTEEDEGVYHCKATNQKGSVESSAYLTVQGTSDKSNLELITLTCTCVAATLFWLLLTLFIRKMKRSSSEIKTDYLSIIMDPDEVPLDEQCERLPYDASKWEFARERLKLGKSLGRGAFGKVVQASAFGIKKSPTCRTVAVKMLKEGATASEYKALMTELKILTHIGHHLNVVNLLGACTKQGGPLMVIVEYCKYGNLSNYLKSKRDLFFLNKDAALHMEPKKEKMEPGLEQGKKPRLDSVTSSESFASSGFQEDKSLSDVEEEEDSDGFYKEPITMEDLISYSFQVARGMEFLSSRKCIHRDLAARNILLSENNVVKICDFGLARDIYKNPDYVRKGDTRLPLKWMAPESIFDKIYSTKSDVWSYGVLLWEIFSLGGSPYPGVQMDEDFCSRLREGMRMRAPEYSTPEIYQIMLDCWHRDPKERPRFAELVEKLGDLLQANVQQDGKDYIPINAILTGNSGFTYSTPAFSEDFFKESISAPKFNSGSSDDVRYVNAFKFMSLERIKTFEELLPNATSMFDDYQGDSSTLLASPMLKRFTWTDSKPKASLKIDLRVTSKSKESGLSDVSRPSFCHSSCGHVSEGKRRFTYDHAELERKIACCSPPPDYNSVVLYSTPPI

Sequence of Cytochrome P450 2C19 (P33261 whole entry): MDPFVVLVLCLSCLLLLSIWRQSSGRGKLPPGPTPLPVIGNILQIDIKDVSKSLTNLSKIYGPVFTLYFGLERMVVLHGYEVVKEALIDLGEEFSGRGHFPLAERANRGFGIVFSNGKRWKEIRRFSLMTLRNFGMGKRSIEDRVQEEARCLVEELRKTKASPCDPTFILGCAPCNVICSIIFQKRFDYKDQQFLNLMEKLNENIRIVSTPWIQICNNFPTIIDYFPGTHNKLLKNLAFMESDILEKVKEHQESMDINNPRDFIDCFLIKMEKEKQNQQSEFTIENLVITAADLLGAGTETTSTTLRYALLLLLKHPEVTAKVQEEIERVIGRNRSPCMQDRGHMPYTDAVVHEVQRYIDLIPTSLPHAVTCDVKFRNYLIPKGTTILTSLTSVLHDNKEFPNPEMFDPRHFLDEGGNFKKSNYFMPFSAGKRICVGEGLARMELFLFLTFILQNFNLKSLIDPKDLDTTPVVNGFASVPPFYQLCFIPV

C#C[C@]1(OC(C)=O)CC[C@H]2[C@@H]3CCC4=C[C@@H](OC(C)=O)CC[C@@H]4[C@H]3CC[C@@]21C [ETHYNODIOL DIACETATE]
Not Active: IC50 [1] | Ki [1] | IC50 [2] | IC50 [3] | Ki [3] | IC50 [4] | IC50 [5] | Ki [5] | IC50 [6] | Ki [6] | IC50 [7]

CCC(=O)O[C@]1(C(=O)CCl)[C@@H](C)C[C@H]2[C@@H]3CCC4=CC(=O)C=C[C@]4(C)[C@@]3(F)[C@@H](O)C[C@@]21C [CLOBETASOL PROPIONATE]
Not Active: IC50 [1] | Ki [1] | IC50 [2] | IC50 [3] | Ki [3] | IC50 [4] | IC50 [5] | Ki [5] | IC50 [6] | Ki [6] | IC50 [7]

C[C@@H](CO)NC(=O)[C@@H]1C=C2c3cccc4[nH]cc(c34)C[C@H]2N(C)C1 [ERGONOVINE]
Not Active: IC50 [1] | Ki [1] | IC50 [2] | IC50 [3] | Ki [3] | IC50 [4] | IC50 [5] | Ki [5] | IC50 [6] | Ki [6] | IC50 [7]

Nc1ccc2c3c(cccc13)C(=O)NC2=O
Not Active: IC50 [1] | Ki [1] | IC50 [2] | IC50 [3] | Ki [3] | IC50 [4] | IC50 [5] | Ki [5] | IC50 [6] | Ki [6] | IC50 [7]

CCN(CC)CCOCCC1=CCC2CC1C2(C)C (configuration not stated) [MYRTECAINE]
Not Active: IC50 [1] | Ki [1] | IC50 [2] | IC50 [3] | Ki [3] | IC50 [4] | IC50 [5] | Ki [5] | IC50 [6] | Ki [6] | IC50 [7]

CCCOc1ccc(C(=O)OCCN(CC)CC)cc1N [PROPARACAINE]
Not Active: IC50 [1] | Ki [1] | IC50 [2] | IC50 [3] | Ki [3] | IC50 [4] | IC50 [5] | Ki [5] | IC50 [6] | Ki [6] | IC50 [7]

O=C(O)c1cccnc1Nc1cccc(C(F)(F)F)c1 [NIFLUMIC ACID]
Not Active: IC50 [1] | Ki [1] | IC50 [2] | IC50 [3] | Ki [3] | IC50 [4] | IC50 [5] | Ki [5] | IC50 [6] | Ki [6] | IC50 [7]

C#CC1(O)CC[C@H]2[C@@H]3CCC4=CC(=O)CC[C@@H]4[C@H]3CC[C@@]21CC (some centres not stated) [NORGESTREL]
Not Active: IC50 [1] | Ki [1] | IC50 [2] | IC50 [3] | Ki [3] | IC50 [4] | IC50 [5] | Ki [5] | IC50 [6] | Ki [6] | IC50 [7]

CCCN(CCC)S(=O)(=O)c1ccc(C(=O)O)cc1 [PROBENECID]
Not Active: IC50 [1] | Ki [1] | IC50 [2] | IC50 [3] | Ki [3] | IC50 [4] | IC50 [5] | Ki [5] | IC50 [6] | Ki [6] | IC50 [7]

O=C1CN=C(c2ccccc2Cl)c2cc([N+](=O)[O-])ccc2N1 [CLONAZEPAM]
Not Active: IC50 [1] | Ki [1] | IC50 [2] | IC50 [3] | Ki [3] | IC50 [4] | IC50 [5] | Ki [5] | IC50 [6] | Ki [6] | IC50 [7]

CC(C(=O)O)c1cccc(Oc2ccccc2)c1 (configuration not stated) [FENOPROFEN]
Not Active: IC50 [1] | Ki [1] | IC50 [2] | IC50 [3] | Ki [3] | IC50 [4] | IC50 [5] | Ki [5] | IC50 [6] | Ki [6] | IC50 [7]

GENTAMICIN
Not Active: IC50 [1] | Ki [1] | IC50 [2] | Ki [2] | IC50 [3] | Ki [3] | IC50 [4] | Ki [4] | IC50 [5] | Ki [5] | IC50 [6] | Ki [6] | IC50 [7] | Ki [7]

CC(=O)Oc1ccc(C(c2ccc(OC(C)=O)cc2)c2ccccn2)cc1 [BISACODYL]
Not Active: IC50 [1] | Ki [1] | IC50 [2] | IC50 [3] | Ki [3] | IC50 [4] | IC50 [5] | Ki [5] | IC50 [6] | Ki [6] | IC50 [7]

C[C@@H]1O[C@@H](O[C@@H]2C=C3CC[C@@H]4[C@H](CC[C@]5(C)[C@@H](c6ccc(=O)oc6)CC[C@]45O)[C@@]3(C)CC2)[C@H](O)[C@H](O)[C@H]1O [PROSCILLARIDIN]
Not Active: IC50 [1] | Ki [1] | IC50 [2] | IC50 [3] | Ki [3] | IC50 [4] | IC50 [5] | Ki [5] | IC50 [6] | Ki [6] | IC50 [7]
